Values quoted from earlier work as cited in patent US11864558B2, “Herbicidal compositions containing N-phosphonomethyl glycine and an auxin herbicide” (Monsanto Technology LLC, priority 2004, dated 2024).

Conditions: acid form; 25° C.

O=C(O)CNCP(=O)(O)O [glyphosate, N-phosphonomethylglycine]
solubility in water: 1.16 % by weight
